Experimental data published in patent US12269859B2, “Synthetic immune receptors and methods of use thereof” (Angeles Therapeutics, Inc., priority 2016, dated 2025).

Tests used:
[1] = test system: target antigen-expressing cell line; assay: Jurkat NFAT-GFP assay, coculture with target cell lines expressing the respective target antigen (summary Table 10A); assay type: cell-based, human; parameters: key: The signs +/−, +, 2+ etc. after the name of the cell lines indicate the relative degree of positivity on the Jurkat-NFAT-GFP assay as measured by the % GFP positive cells; +: relative degree of positivity on the Jurkat-NFAT-GFP assay as measured by the % GFP positive cells; 2+: relative degree of positivity on the Jurkat-NFAT-GFP assay as measured by the % GFP positive cells; settings: relative % GFP positive cells; for NFAT-GFP ASSAY Positive Cell lines: NALM6: SIR-expressing Jurkat-NFAT-GFP cells cocultured with NALM6
Method: (B) Induction of NFAT promoter driven GFP expression. The control vector- and SIR-expressing Jurkat-NFAT-GFP cocultured for 4-24 hours with the target antigen-expressing cell line (described above) and their ability to bind to the target antigen is assayed by measuring induction of GFP expression using Flow Cytometry. Cellular supernatant is collected and assayed for the induction of cytokines (e.g., IL2).
Jurkat NFAT-GFP Assay For Synthetic Immune Receptors. The Jurkat-NFAT-GFP cells are engineered in such a way that the IL-2 promoter, which carries NFAT binding sites, is cloned upstream of the GFP gene. These cells have been used to study signaling via TCR and CAR. The different SIRs were stably expressed in Jurkat NFAT-GFP cells by lentiviral mediated gene transfer, followed by selection with puromycin. The SIR-expressing Jurkat-NFAT-GFP cells were cocultured with the target cells at E:T ratio of approximately 1:2 for approximately 4 hours to 18 hours. When the interaction between SIRs and their target antigen results in activation of the NFAT pathway, GFP expression is induced.
Induction of GFP expression by coculturing of Jurkat-NFAT-GFP cells expressing different SIR constructs and the different target cells was studied essentially as described previously (Wu, Roybal, Puchner, Onuffer, & Lim, 2015). GFP expression was monitored by FACS analysis. A few representative examples of this assay are shown in the FIG. 13A-B. In panel A, control Jurkat-NFAT-GFP cells or those expressing SIRs targeting CD19 (clone ID 051716-I08), MPL (Clone ID: 040716-A07) and BCMA (Clone ID: 011116-A07) were incubated with RAJI (top), HEL (middle) or U266 (bottom) cells, respectively. […] In panel B, Jurkat cells expressing SIR targeting CDH6 (Clone ID: 051716-J05), CD276 (Clone ID: 050516-Q06) and Her2/neu (Clone ID: 050516-I03) were incubated with SKOV3 (top) and […] (middle and bottom) cells, respectively. […] The Jurkat-NFAT-GFP cells were engineered to express different SIRs targeting other antigens and the experiment repeated upon coculture with the target cells expressing their respective target antigen. The Jurkat-NFAT-GFP (parental) cells were used as control. The names of different SIRs, their SEQ ID NOs, component antigen binding domains and TCR chains can be determined by reference to Tables 7A-7H. A SIR is considered positive in the assay in case the SIR expressing Jurkat-NFAT-GFP cells show greater % GFP positive cells when cultured with the target cell line as compared to parental Jurkat-NFAT-GFP cells. […] The signs +/−, +, 2+ etc. after the name of the cell lines indicate the relative degree of positivity on the Jurkat-NFAT-GFP assay as measured by the % GFP positive cells after culture of the SIR expressing Jurkat-NFAT-GFP cells with that cell line. […] In addition, great diversity of response against the same target cell line is observed with Jurkat cells expressing SIRs containing different antigen binding domains targeting the same antigen (e.g., SIRs having antigen binding domains derived form different CD19 antibodies) even when the SIRs share the same TCR chains and linkers. Finally, Jurkat cells expressing SIRs targeting different antigens (e.g. CD19 vs CD20) show a diversitiy of response when exposed to the same target cell line. Thus, a diverse immune response can be generated against a single target cell by combining SIRs with different TCR chains, linkers, antigen binding domains and target specificity. Table 10A also summarizes the results of GLuc based T cell cytotoxicity assay observed with different SIRs when exposed to their target cell lines. […]

[2] = test system: RAJI cells; assay: RAJI xenograft model of lymphoma in NSG mice (survival); assay type: in vivo
Method: In vivo efficacy of SIR targeting CD19. […] SIR constructs and Gluc-PAC-G07 control construct encoding non-secretory form of Guassia Luciferase. Approximately half the cells were selected with puromycin while the other half was expanded without puromycin selection. NSG mice (Jackson Lab) were sub-lethally irradiated at a dose of 175 cGy. Approximately 24 hours post irradiation (day 2), mice were injected with 2.5×10^4 RAJI cells via tail-vein. […] Control mice (n=5) received no T cells or uninfected T cells. Mice were given human IL2 (400 IU intraperitoneally) on alternate days till the death of all mice in control group.
Approximately half the cells were selected with puromycin while the other half was expanded without puromycin selection. NSG mice (Jackson Lab) were sub-lethally irradiated at a dose of 175 cGy. Approximately 24 hours post irradiation (day 2), mice were injected with 2.5×10^4 RAJI cells via tail-vein. […] Control mice (n=5) received no T cells or uninfected T cells. Mice were given human IL2 (400 IU intraperitoneally) on alternate days till the death of all mice in control group.
SIR construct. NSG mice (Jackson Lab) were sub-lethally irradiated at a dose of 175 cGy. Approximately 24 hours post irradiation (day 2), mice were injected with 2.5×10^4 RAJI cells via tail-vein. […] SIR encoding lentivirus. Control mice (n=5) were injected with 5 million uninfected T cells or given no T cells.
SIR constructs. […] SIR were included as controls. NSG mice (n=5) were sub-lethally irradiated at a dose of 175 cGy. 24 hours post irradiation (day 2), mice were injected with 2.5×10^4 RAJI cells via tail-vein. […] Mice were given human IL2 (400 IU i.p.) on alternate days till the death of all mice in control group.
Human peripheral blood T cells isolated using CD3 magnetic beads were infected with lentiviruses expressing the indicated SIR constructs targeting Lym1 and Lym2. On day 1, the NSG mice were sub-lethally irradiated at a dose of 175 cGy. 24 hours post irradiation (day 2), mice were injected with 25×10^3 Raji cells intravenously. On day 3, the mice were treated intravenously with 10 million indicated CAR-T cells. Beginning on day 4, mice were injected with human IL-2 i.p. at a dose of 400 IU/mice every alternate day after the injection CAR-T cells till the death of all mice in control group.

[3] = FIG. 17: 2.5×10^4 RAJI cells, 5 million T cells on day 3, human IL2 (400 IU i.p.) on alternate days

| Substance | NFAT-GFP ASSAY Positive Cell lines: NALM6 [1] | Median Survival [2, 3] [days] | NFAT-GFP ASSAY Positive Cell lines: RAJI ([1]; SIR-expressing Jurkat-NFAT-GFP cells cocultured with RAJI) | Median Survival ([2]; NSG mice, 2.5×10^4 RAJI cells via tail-vein, 5 million T cells on day 3, Table 13) [days] | survival (in words) ([2]; experiment of Table 13) |
| --- | --- | --- | --- | --- | --- |
| CD8SP-CD19Bu12-vL-V5-[TCRb-S57C-opt1]-F-P2A-SP-CD19Bu12-vH-Myc-[TCRa-T48C-opt1]-F-F2A-PAC [SEQ ID NO:1021] | (2+) | 51 |  |  |  |
| CD8SP-FMC63-vL-V5-[TCRb-S57C-opt1]-F-P2A-SP-FMC63-vH-Myc-[TCRa-T48C-opt1]-F-F2A-PAC [SEQ ID NO:900] | RAJI(2+), NALM6(2+) | 28.0 | RAJI(2+), NALM6(2+) | 27 | conferred survival advantage |
